IC50 data for 2 compounds are collected here from patent US20080207617A1, “Quinoline Derivatives and Quinazoline Derivatives Inhibiting Autophosphrylation of Flt3 and Medicinal Compositions Containing the Same” (KIRIN BEER KABUSHIKI KAISHA, priority 2002, published 2008).

One assay deals with T1, FLT3 (Homo sapiens, UniProt P36888).
T1 sequence (P36888 with tags, fused parts or gaps INS600HVDFREYEYD): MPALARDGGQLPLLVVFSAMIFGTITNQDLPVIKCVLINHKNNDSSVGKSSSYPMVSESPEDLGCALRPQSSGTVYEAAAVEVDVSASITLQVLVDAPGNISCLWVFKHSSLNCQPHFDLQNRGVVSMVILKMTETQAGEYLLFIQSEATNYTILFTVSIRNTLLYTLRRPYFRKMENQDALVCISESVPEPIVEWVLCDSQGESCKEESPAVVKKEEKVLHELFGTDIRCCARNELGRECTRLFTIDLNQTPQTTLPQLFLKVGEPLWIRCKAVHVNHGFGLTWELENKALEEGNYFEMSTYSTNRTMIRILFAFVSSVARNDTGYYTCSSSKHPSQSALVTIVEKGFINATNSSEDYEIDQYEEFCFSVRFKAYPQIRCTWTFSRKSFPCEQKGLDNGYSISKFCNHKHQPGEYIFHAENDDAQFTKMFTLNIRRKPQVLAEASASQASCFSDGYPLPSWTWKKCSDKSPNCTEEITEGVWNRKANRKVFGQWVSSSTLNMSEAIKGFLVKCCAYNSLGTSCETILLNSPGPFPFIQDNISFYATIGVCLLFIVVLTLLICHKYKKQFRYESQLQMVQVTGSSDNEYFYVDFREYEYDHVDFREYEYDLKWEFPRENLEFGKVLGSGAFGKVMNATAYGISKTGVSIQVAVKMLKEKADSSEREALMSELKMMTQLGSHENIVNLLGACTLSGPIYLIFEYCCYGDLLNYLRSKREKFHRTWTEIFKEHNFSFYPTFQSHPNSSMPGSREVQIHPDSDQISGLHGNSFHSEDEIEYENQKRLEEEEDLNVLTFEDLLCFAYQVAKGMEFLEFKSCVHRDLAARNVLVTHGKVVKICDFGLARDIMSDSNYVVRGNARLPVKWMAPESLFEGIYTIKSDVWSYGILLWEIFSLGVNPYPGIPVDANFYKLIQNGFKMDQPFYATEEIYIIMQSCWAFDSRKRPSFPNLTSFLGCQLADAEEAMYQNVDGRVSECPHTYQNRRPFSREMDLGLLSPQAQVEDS
As to the kind of experiment: Inhibitory activity against FLT3 autophosphorylation using ELISA method. In kind it is cell-based. Conditions: MV4-11 cells, 1 hr with compound, read-out: IC50 of FLT3-phosphorylation. As to the method:
Pharmacological Test Example 1
Measurement of Inhibitory Activity Against FLT3 Autophosphorylation Using ELISA Method
Human leukemia cells MV4-11 (ATCC number: CRL-9591) were cultured in an IMDM medium containing 10% fetal calf serum (purchased from SIGMA) within a 5% carbon dioxide incubator until 50 to 90% confluent. The harvested cells were seeded into 96-wells, plates, containing an IMDM medium containing 0.1% fetal calf serum, in a 96-well multiscreen plate in an amount of 5.0×10^5 per well, a solution of the test compound in dimethyl sulfoxide was added to each well, and the cultivation was continued at 37° C. for one hr. The medium was removed, followed by washing with phosphate buffered saline. A lysis buffer (60 μl) (20 mM HEPES (pH 7.4), 150 mM NaCl, 0.2% Triton X-100, 10% glycerol, 5 mM sodium orthovanadylate, 5 mM disodium ethylenediaminetetraacetate, and 2 mM Na4P2O7) was then added thereto. The mixture was shaken at 4° C. for 2 hr to prepare a cell extracts.
Separately, phosphate buffered saline (50 μl, pH 7.4) containing 5 μg/ml of anti-phospho-tyrosine antibody (PY20; purchased from Transduction Laboratories) was added to a 96-well microplate for ELISA (Maxisorp; purchased from NUNC), followed by standing at 4° C. overnight to form a solid phase on the wells. After washing of the plate, 250 μl of a blocking solution was added, followed by standing at room temperature for 3 hr to perform blocking. After washing, the whole quantity of the cell extract was transferred to the wells, and the plate was then allowed to stand at 4° C. overnight. After washing, an anti-FLT3 antibody (Flt3/Flk2 (C-20), purchased from Santa Cruz Biotechnology) was allowed to react at room temperature for 2 hr, and, after washing, a peroxidase-labeled anti-rabbit Ig antibody (purchased from Amersham) was allowed to react at room temperature for one hr. After washing, a chromophoric substrate for peroxidase (purchased from Sumitomo Bakelite Co., Ltd.) was added thereto to initiate a reaction. After a suitable level of color development, a reaction termination solution was added to stop the reaction, and the absorbance at 450 nm was measured with a microplate reader. The FLT3-phosphorylation activity for each well was determined by presuming the absorbance without the addition of the medicament to be 100% FLT3-phosphorylation activity and the absorbance with the addition of a large excess of a positive control (Compound 1, 10 μM) to be 0% FLT3-phosphorylation activity. The concentration of the test compound was varied on several levels, the FLT3-phosphorylation inhibitory activity was determined for each case, and the concentration of the test compound necessary for inhibiting 50% of FLT3-phosphorylation (IC50) was calculated.
For orientation: An ELISA detects its analyte on a solid surface through an enzyme-linked reagent.

Another assay relates to MV4-11. As to the kind of experiment: Cell growth inhibitory test MV4-11 (WST-1). In kind it is cell-based, human. Conditions: Homo sapiens, MV4-11, 72 h, MV4-11 cells, 3 days culture. A digest of the protocol: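 MV4-11 leukemia cells (3×10^3/well, DMEM + 10% FCS) were cultured 3 days with compound in DMSO at 5% CO2. Growth read by WST-1 absorbance at 450 nm (ref 650 nm), normalized to untreated (100%) and cell-free (0%) wells; IC50 from multiple concentrations.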
A general note: Tetrazolium dyes change colour on reduction, which living cells bring about.

The subject of another assay is MOLM13. Nature of the assay: Cell growth inhibitory activities on cultured human leukemia cells MOLM-13 (WST-1). In kind it is cell-based. As to conditions: Homo sapiens, MOLM-13, 72 h, 3 days culture.

Structures can show the parent of a compound that is named as a salt.

Consider `COc1cc2nccc(Oc3ccc(NC(=O)NCCC(C)(C)C)cc3C)c2cc1OC` [Compound 3, 1-[4-(6,7-Dimethoxy-quinolin-4-yloxy)-3-methyl-phenyl]-3-(3,3-dimethyl-butyl)-urea], for which the figures for the IC50 on FLT3, in the assay on MV4-11 and in the assay on MOLM13 were 7 nM, 2 nM and 3 nM, respectively.
As for `COc1cc2c(Oc3ccc(NC(=O)NCCC(C)(C)C)cc3)ccnc2cc1OCCN1CCCCC1` [Compound 40, 1-{4-[6-Methoxy-7-(2-piperidin-1-yl-ethoxy)-quinolin-4-yloxy]-phenyl}-3-(3,3-dimethyl-butyl)-urea hydrochloride], the IC50 at FLT3 stood at 93 nM; in the assay with MV4-11 it was 1 nM; in the assay with MOLM13 it was 2 nM.

The term IC50 denotes the concentration that gives 50% inhibition.
